Data from ChEMBL document CHEMBL1201862, “PubChem BioAssay data set” (2004).
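Grown in 96-well plates, cells were treated for 48 hours with each compound at five concentrations. Insufficient inhibition: endpoint recorded as highest concentration tested. Here, GI50 denotes the concentration required for 50% inhibition of growth.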 Calls of active or inactive are those of the source. Cut-off read from the data, not from the text of the source: active = GI50 up to about 1.1 µM and inactive = higher.

What was measured:
Assay in all cases: NCI tumour cell line growth inhibition, 48 h
786-0 = tested on: 786-0
A498 = tested on: A498
A549 = tested on: A549
ACHN = tested on: ACHN
BT-549 = tested on: BT-549
CAKI-1 = tested on: CAKI-1
CCRF-CEM = tested on: CCRF-CEM
COLO 205 = tested on: COLO 205
DU-145 = tested on: DU-145
EKVX = tested on: EKVX
HCC 2998 = tested on: HCC 2998
HCT-116 = tested on: HCT-116
HCT-15 = tested on: HCT-15
HL-60 = tested on: HL-60
HOP-62 = tested on: HOP-62
HT-29 = tested on: HT-29
Hs-578T = tested on: Hs-578T
IGROV-1 = tested on: IGROV-1
K562 = tested on: K562
KM12 = tested on: KM12
LOX IMVI = tested on: LOX IMVI
M14 = tested on: M14
MCF7 = tested on: MCF7
MDA-MB-231 = tested on: MDA-MB-231
MDA-MB-435 = tested on: MDA-MB-435
MDA-N = tested on: MDA-N
MOLT-4 = tested on: MOLT-4
Malme-3M = tested on: Malme-3M
NCI-H226 = tested on: NCI-H226
NCI-H23 = tested on: NCI-H23
NCI-H460 = tested on: NCI-H460
NCI/ADR-RES = tested on: NCI/ADR-RES
OVCAR-3 = tested on: OVCAR-3
OVCAR-4 = tested on: OVCAR-4
OVCAR-5 = tested on: OVCAR-5
OVCAR-8 = tested on: OVCAR-8
PC-3 = tested on: PC-3
RPMI-8226 = tested on: RPMI-8226
RXF 393 = tested on: RXF 393
SF-268 = tested on: SF-268
SF-295 = tested on: SF-295
SF-539 = tested on: SF-539
SK-MEL-28 = tested on: SK-MEL-28
SK-MEL-2 = tested on: SK-MEL-2
SK-MEL-5 = tested on: SK-MEL-5
SK-OV-3 = tested on: SK-OV-3
SN12C = tested on: SN12C
SNB-19 = tested on: SNB-19
SNB-75 = tested on: SNB-75
SR = tested on: SR
SW-620 = tested on: SW-620
T47D = tested on: T47D
TK-10 = tested on: TK-10
U-251 = tested on: U-251
UACC-257 = tested on: UACC-257
UACC-62 = tested on: UACC-62
UO-31 = tested on: UO-31
HOP-92 = tested on: HOP-92
NCI-H522 = tested on: NCI-H522

CCN1CCCn2c(=O)[nH]c3cc(Br)cc1c32
GI50 (786-0): 65 µM (inactive) | GI50 (A498): 15.1 µM (inactive) | GI50 (A549): > 100 µM (inactive) | GI50 (ACHN): > 100 µM (inactive) | GI50 (BT-549): 14.6 µM (inactive) | GI50 (CAKI-1): > 100 µM (inactive) | GI50 (CCRF-CEM): > 100 µM (inactive) | GI50 (COLO 205): > 100 µM (inactive) | GI50 (DU-145): > 100 µM (inactive) | GI50 (EKVX): 0.706 µM (active) | GI50 (HCC 2998): > 100 µM (inactive) | GI50 (HCT-116): > 100 µM (inactive) | GI50 (HCT-15): > 100 µM | GI50 (HL-60): > 100 µM (inactive) | GI50 (HOP-62): 25.5 µM (inactive) | GI50 (HT-29): > 100 µM (inactive) | GI50 (Hs-578T): 0.394 µM (active) | GI50 (IGROV-1): > 100 µM (inactive) | GI50 (K562): > 100 µM (inactive) | GI50 (KM12): > 100 µM (inactive) | GI50 (LOX IMVI): > 100 µM (inactive) | GI50 (M14): > 100 µM (inactive) | GI50 (MCF7): > 100 µM (inactive) | GI50 (MDA-MB-231): 38.4 µM (inactive) | GI50 (MDA-MB-435): > 100 µM (inactive) | GI50 (MDA-N): > 100 µM (inactive) | GI50 (MOLT-4): 60.8 µM (inactive) | GI50 (Malme-3M): > 100 µM (inactive) | GI50 (NCI-H226): 55.5 µM (inactive) | GI50 (NCI-H23): > 100 µM (inactive) | GI50 (NCI-H460): > 100 µM (inactive) | GI50 (NCI/ADR-RES): > 100 µM (inactive) | GI50 (OVCAR-3): > 100 µM (inactive) | GI50 (OVCAR-4): > 100 µM (inactive) | GI50 (OVCAR-5): > 100 µM (inactive) | GI50 (OVCAR-8): 27 µM (inactive) | GI50 (PC-3): > 100 µM (inactive) | GI50 (RPMI-8226): > 100 µM (inactive) | GI50 (RXF 393): 15.2 µM (inactive) | GI50 (SF-268): 24 µM (inactive) | GI50 (SF-295): 35.1 µM (inactive) | GI50 (SF-539): 23 µM (inactive) | GI50 (SK-MEL-28): > 100 µM (inactive) | GI50 (SK-MEL-2): > 100 µM (inactive) | GI50 (SK-MEL-5): > 100 µM (inactive) | GI50 (SK-OV-3): 25.2 µM (inactive) | GI50 (SN12C): > 100 µM (inactive) | GI50 (SNB-19): 89.1 µM (inactive) | GI50 (SNB-75): 16.7 µM (inactive) | GI50 (SR): > 100 µM (inactive) | GI50 (SW-620): > 100 µM (inactive) | GI50 (T47D): 65.5 µM (inactive) | GI50 (TK-10): 51.6 µM (inactive) | GI50 (U-251): 41.3 µM (inactive) | GI50 (UACC-257): > 100 µM (inactive) | GI50 (UACC-62): 69.8 µM (inactive) | GI50 (UO-31): > 100 µM (inactive)

CC(C)CCCC(C)[C@H]1CC[C@H]2n3c(nnc3-c3ccccc3)CCC[C@]12C (some centres not stated)
GI50 (786-0): 14.6 µM (inactive) | GI50 (A498): 14 µM (inactive) | GI50 (A549): 9.86 µM (inactive) | GI50 (BT-549): 19.8 µM (inactive) | GI50 (CAKI-1): 14 µM (inactive) | GI50 (CCRF-CEM): 3.49 µM (inactive) | GI50 (COLO 205): 3.21 µM (inactive) | GI50 (DU-145): 16.2 µM (inactive) | GI50 (HCC 2998): < 0.01 µM (active) | GI50 (HCT-116): 9.48 µM (inactive) | GI50 (HCT-15): 13.8 µM | GI50 (HL-60): 3.54 µM (inactive) | GI50 (HOP-62): 16 µM (inactive) | GI50 (HOP-92): 15.1 µM (inactive) | GI50 (HT-29): 17.5 µM (inactive) | GI50 (Hs-578T): 18.4 µM (inactive) | GI50 (IGROV-1): 5.74 µM (inactive) | GI50 (K562): 3.8 µM (inactive) | GI50 (KM12): 28.8 µM (inactive) | GI50 (LOX IMVI): 1.86 µM (inactive) | GI50 (M14): 12.8 µM (inactive) | GI50 (MCF7): 5.97 µM (inactive) | GI50 (MDA-MB-231): 15 µM (inactive) | GI50 (MDA-MB-435): 10.7 µM (inactive) | GI50 (MDA-N): 13.6 µM (inactive) | GI50 (MOLT-4): 3.96 µM (inactive) | GI50 (Malme-3M): 23.2 µM (inactive) | GI50 (NCI-H226): 14.8 µM (inactive) | GI50 (NCI-H23): 12.4 µM (inactive) | GI50 (NCI-H460): 9.91 µM (inactive) | GI50 (NCI/ADR-RES): 9.93 µM (inactive) | GI50 (OVCAR-3): 10.5 µM (inactive) | GI50 (OVCAR-4): 12.5 µM (inactive) | GI50 (OVCAR-8): 15.9 µM (inactive) | GI50 (PC-3): 9.33 µM (inactive) | GI50 (RPMI-8226): 4.13 µM (inactive) | GI50 (RXF 393): 11.5 µM (inactive) | GI50 (SF-268): 12.7 µM (inactive) | GI50 (SF-295): 9.08 µM (inactive) | GI50 (SF-539): 11.9 µM (inactive) | GI50 (SK-MEL-28): 16.9 µM (inactive) | GI50 (SK-MEL-2): 12.4 µM (inactive) | GI50 (SK-MEL-5): 10.7 µM (inactive) | GI50 (SK-OV-3): 13.4 µM (inactive) | GI50 (SN12C): 8.91 µM (inactive) | GI50 (SNB-19): 11.8 µM (inactive) | GI50 (SNB-75): 17.5 µM (inactive) | GI50 (SR): 4.06 µM (inactive) | GI50 (SW-620): 6.21 µM (inactive) | GI50 (T47D): 11.7 µM (inactive) | GI50 (TK-10): 21.5 µM (inactive) | GI50 (U-251): 7.19 µM (inactive) | GI50 (UACC-257): 13.3 µM (inactive) | GI50 (UACC-62): 12.4 µM (inactive) | GI50 (UO-31): 10.4 µM (inactive)

C=CCc1cc(-c2n[nH]c(=S)[nH]2)ccc1N/N=N/c1ccc(C(=O)O)cc1
GI50 (786-0): > 100 µM (inactive) | GI50 (A498): > 100 µM (inactive) | GI50 (A549): > 100 µM (inactive) | GI50 (ACHN): 71.3 µM (inactive) | GI50 (BT-549): 27.2 µM (inactive) | GI50 (CAKI-1): > 100 µM (inactive) | GI50 (CCRF-CEM): 54 µM (inactive) | GI50 (COLO 205): 22.6 µM (inactive) | GI50 (DU-145): > 100 µM (inactive) | GI50 (EKVX): > 100 µM (inactive) | GI50 (HCT-116): > 100 µM (inactive) | GI50 (HCT-15): > 100 µM | GI50 (HL-60): 30.8 µM (inactive) | GI50 (HOP-62): 81.3 µM (inactive) | GI50 (HOP-92): > 100 µM (inactive) | GI50 (HT-29): > 100 µM (inactive) | GI50 (Hs-578T): 44.6 µM (inactive) | GI50 (IGROV-1): 83 µM (inactive) | GI50 (K562): 49 µM (inactive) | GI50 (KM12): 40.2 µM (inactive) | GI50 (LOX IMVI): 74.5 µM (inactive) | GI50 (M14): > 100 µM (inactive) | GI50 (MCF7): 59.4 µM (inactive) | GI50 (MDA-MB-231): > 100 µM (inactive) | GI50 (MDA-MB-435): 44.8 µM (inactive) | GI50 (MDA-N): 66.2 µM (inactive) | GI50 (MOLT-4): 32.4 µM (inactive) | GI50 (Malme-3M): 51.6 µM (inactive) | GI50 (NCI-H226): 42.4 µM (inactive) | GI50 (NCI-H23): 48.1 µM (inactive) | GI50 (NCI-H522): 34.1 µM (inactive) | GI50 (NCI/ADR-RES): > 100 µM (inactive) | GI50 (OVCAR-3): 56 µM (inactive) | GI50 (OVCAR-4): 44.7 µM (inactive) | GI50 (OVCAR-5): > 100 µM (inactive) | GI50 (OVCAR-8): 38.5 µM (inactive) | GI50 (PC-3): > 100 µM (inactive) | GI50 (RPMI-8226): 38.5 µM (inactive) | GI50 (RXF 393): 89.5 µM (inactive) | GI50 (SF-268): 49.7 µM (inactive) | GI50 (SF-295): 52.4 µM (inactive) | GI50 (SK-MEL-28): > 100 µM (inactive) | GI50 (SK-MEL-2): 58.1 µM (inactive) | GI50 (SK-MEL-5): 16.7 µM (inactive) | GI50 (SK-OV-3): > 100 µM (inactive) | GI50 (SN12C): > 100 µM (inactive) | GI50 (SNB-19): > 100 µM (inactive) | GI50 (SNB-75): > 100 µM (inactive) | GI50 (SR): 45.9 µM (inactive) | GI50 (SW-620): > 100 µM (inactive) | GI50 (T47D): 24 µM (inactive) | GI50 (TK-10): > 100 µM (inactive) | GI50 (U-251): > 100 µM (inactive) | GI50 (UACC-257): 76.9 µM (inactive) | GI50 (UO-31): > 100 µM (inactive)
